Measurements taken from BindingDB's records for doi:10.1111/cbdd.12265 (Birla Institute of Technology, 2014).

biological target: T1, Secreted chorismate mutase (Mycobacterium tuberculosis (strain ATCC 25618 / H37Rv), UniProt P9WIB9); assay: CM Assay; details: 37 °C
T1 sequence (P9WIB9 whole entry): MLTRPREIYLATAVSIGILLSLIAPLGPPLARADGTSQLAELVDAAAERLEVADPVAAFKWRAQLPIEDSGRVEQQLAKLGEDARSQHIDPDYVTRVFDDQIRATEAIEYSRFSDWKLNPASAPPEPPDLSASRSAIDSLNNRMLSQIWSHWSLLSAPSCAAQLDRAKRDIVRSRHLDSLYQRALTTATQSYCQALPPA
Experimental: The reaction was initiated by the addition of 150pmoles of enzyme to a mixture of inhibitor (40µM, 20 µM, 10 µM, 5 µM, 1 µM and 0.5 µM ), 20µM chorismic acid in 50mM Tris-HCl, 0.5mM EDTA, 0.1mg/ml BSA, 10mM β-mercaptoethanol (pH-7.5). The assay mixture was incubated at 37°C for 5 min and the reaction was terminated by the addition of 40µL of 1N HCl and further incubation at 37°C for 1 to 5 min. Phenyl pyruvate formed at the end of reaction is converted to chromophoric base with the addition of 80µL 2.5N NaOH. The absorbance of each sample was read at 320nm. Positive control contained the assay mixture with carvacrol(40µM, 20 µM, 10 µM, 5 µM, 1 µM and 0.5 µM ).

Row | Compound | IC50 [µM]
1 | Cc1ccc(C)c(-c2ccc3c(c2)C(=O)C(=O)N3)c1 [5‐(2,5‐dimethylphenyl)‐1H‐indole‐2,3‐dione (Compound 18)] | 36.5
2 | O=C1Nc2ccccc2/C1=C/c1ccc([N+](=O)[O-])cc1 [3-(4-nitrobenzylidene)indolin-2-one (Compound 24)] | 1.01
3 | CC(=O)N1C(=O)C(=O)c2ccccc21 [Acetylisatin (Compound 7)] | 0.99
4 | O=C1Nc2ccc(N3CCNCC3)cc2C1=O [5‐(piperazin‐1‐yl)‐1H‐indole‐2,3‐dione (Compound 19)] | 39.9
5 | CC(C)(C)C(=O)N1C(=O)C(=O)c2ccccc21 [1‐(2,2‐dimethylpropanoyl)indole‐2,3‐dione (Compound 8)] | 41
6 | CN1CCN(c2ccc3c(c2)C(=O)C(=O)N3)CC1 [5‐(4‐methylpiperazin‐1‐yl)‐1H‐indole‐2,3‐dione (Compound 20)] | 31.9
7 | NNC(=O)/N=C1\C(=O)Nc2ccccc21 [3‐amino‐1‐[(3Z)‐2‐oxo‐1H‐indol‐3‐ylidene]urea (Compound 10)] | 54.1
8 | O=C1C(=O)N(c2ccccc2)c2ccccc21 [1-phenyl-2,3-dihydro-1H-indole-2,3-dione] | 23.3
9 | CC(=O)n1c(O)c(NC(=S)N=N)c2ccccc21 [1‐[(3Z)‐1‐acetyl‐2‐oxoindol‐3‐ylidene]‐3‐ aminothiourea (Compound 11)] | 30.5
10 | O=C1Nc2ccc(N3CCN(c4cccc(C(F)(F)F)c4)CC3)cc2C1=O [5‐{4‐[3‐(trifluoromethyl)phenyl]piperazin‐1‐yl}‐1H‐ indole‐2,3‐dione (Compound 21)] | 55.7
11 | O=C1Nc2ccccc2C1=O [2,3-dihydro-1H-indole-2,3-dione] | 1.08
12 | O=C1Nc2ccccc2/C1=C/c1ccc([N+](=O)[O-])s1 [3-((5-nitrothiophen-2-yl)methylene)indolin-2-one (Compound 25)] | 0.93
13 | O=C1Nc2ccc(-c3cccc(Cl)c3Cl)cc2C1=O [5‐(2,3‐dichlorophenyl)‐1H‐indole‐2,3‐dione (Compound 17)] | 95.7
14 | O=C1Nc2ccc(N3CCCCC3)cc2C1=O [5‐(piperidin‐1‐yl)‐1H‐indole‐2,3‐dione (Compound 22)] | 25.6
15 | C=CCN1C(=O)C(=O)c2ccccc21 [1‐(prop‐2‐en‐1‐yl)indole‐2,3‐dione (Compound 5)] | 96.6
16 | CCN1C(=O)C(=O)c2ccccc21 [1‐ethylindole‐2,3‐dione (Compound 3)] | 22.7
17 | CC(=O)N1C(=O)C(=NC(=O)NN)c2ccccc21 [1‐[(3Z)‐1‐acetyl‐2‐oxoindol‐3‐ylidene]‐3‐aminourea (Compound 12)] | 25
18 | O=NC1C(=O)Nc2ccccc21 (stereo not given) [(3Z)‐3‐(hydroxyimino)‐1H‐indol‐2‐one (Compound 15)] | 98.1
19 | O=C1Nc2ccccc2/C1=N/c1nc2ccc([N+](=O)[O-])cc2s1 [(3Z)‐3‐[(6‐nitro‐1,3‐benzothiazol‐2‐yl)imino]‐1H‐ indol‐2‐one (Compound 14)] | > 100
20 | O=C1Nc2ccccc2/C1=N/c1ncc([N+](=O)[O-])s1 [(3Z)‐3‐[(5‐nitro‐1,3‐thiazol‐2‐yl)imino]‐1H‐indol‐2‐ one (Compound 13)] | > 100
21 | O=C1Nc2ccc(-c3ccccc3)cc2C1=O | 37.1
22 | CC(C)N1C(=O)C(=O)c2ccccc21 [1‐isopropylindole‐2,3‐dione (Compound 4)] | 75.1
23 | NNC(=S)N=C1C(=O)Nc2ccccc21 [3‐amino‐1‐[(3Z)‐2‐oxo‐1H‐indol‐3‐ylidene]thiourea (Compound 9)] | 66.9
24 | O=C1Nc2ccc(N3CCN(C(=O)c4ccco4)CC3)cc2C1=O [5‐[4‐(furan‐2‐carbonyl)piperazin‐1‐yl]‐1H‐indole‐ 2,3‐dione (Compound 23)] | 28.8
25 | CN1C(=O)C(=O)c2ccccc21 [1-methyl-2,3-dihydro-1H-indole-2,3-dione] | 1.96
